# Measured values taken from patent US8546410B2, “Heteroaryl-fused macrocyclic pyrimidine derivatives” (AbbVie Inc., priority 2008, dated 2013).
# Key:
# [1] = biological target: T1, histamine H4 receptor (Homo sapiens, UniProt Q9H3N8); test: In vitro histamine H4 potency in FLIPR (Ca2+ flux, Fluo-4, HEK-293 cells coexpressing Gαqi5); format: cell-based; settings: Kb values for antagonists and inverse agonists, EC50 values for partial agonists
# T1 construct: expressed in transfected cells
# From the text: There are many methods available to show the effectiveness of compounds as histamine H4 receptor ligands. Histamine H4 receptors from mammalian species have been cloned. Methods to clone, express, and assess the potency and functional activity of such cloned genes are well known to those skilled in the art of molecular biology. Examples of methods of cloning and expressing histamine H4 receptors, and of assessing the potency and functional activity are described in Nguyen, et al. Molecular Pharmacology (2001) vol. 59 pp. 427-433; Zhu, et al. Molecular Pharmacology (2001) vol. 59 pp. 434-441; Coge, et al., Biochemical and Biophysical Research Communications (2001) vol. 284, pp. 301-309; Liu, et al. Molecular Pharmacology (2001) vol. 59 pp. 420-426; Liu, et al. Journal of Pharmacology and Experimental Therapeutics (2001) v. 299, pp. 121-130; and Thurmond, et al. Journal of Pharmacology and Experimental Therapeutics (2004) v. 309, pp. 404-413. In the present case, to determine the potency and effectiveness of representative compounds of this invention as histamine-H4 receptor ligands (H4 receptor ligands), the following tests were conducted according to previously described methods (see Esbenshade, et al., Biochemical Pharmacology (2004), vol. 68, pp. 933-945, and in Krueger, et al., Journal of Pharmacology and Experimental Therapeutics (2005) v. 314, pp. 271-281): histamine H4 receptors were cloned and stably expressed in HEK-293 (human embryonic kidney) cells coexpressing a Gαqi5. Before testing, cells are loaded with a Ca^+2 sensitive fluorescent dye, in this case Fluo-4. In the case of partial agonist or agonist ligands, addition of compound to the cells leads to the increase in intracellular Ca^+2 which is detected by FLIPR (Fluorescence Imaging Plate Reader; Molecular Devices, Sunnyvale, Calif.) technology. In a similar manner, compounds that are antagonists or inverse agonists, block the increase in fluorescence induced by the full histamine H4 agonist histamine, and partial agonists reduce the amount of fluorescence induced by the full histamine H4 agonist histamine. The fluorescence intensities measured before addition of the test compound are subtracted from the fluorescence intensities at later time points. Peak response values determined at each concentration of ligand are expressed as a percentage of the response obtained with the full agonist histamine. Concentration versus response data are analyzed to obtain compound potency as Kb values for antagonists and inverse agonists and as EC50 values for partial agonists.
# [2] = biological target: T1, histamine H4 receptor; test: 3H-histamine competition binding assay, membranes of transfected HEK-293 cells; settings: displacement of [3H]-histamine, 25° C., 1 hour; Ki by Cheng-Prusoff equation; read-out: Potency
# Protocol: The potency of compounds of the invention in displacing ^3H-histamine in competition binding assays is assessed by methods described in Esbenshade, et al., Biochemical Pharmacology (2004), vol. 68, pp. 933-945. In this assay, membranes were prepared from HEK-293 cells transiently transfected with the pCINeo expression vector harboring the histamine H4 receptor by homogenization of the cells on ice in TE buffer (50 mM Tris-HCl buffer, pH 7.4, containing 5 mM EDTA), 1 mM benzamidine, 2 μg/ml aprotinin, 1 μg/ml leupeptin, and 1 μg/ml pepstatin. The homogenate was centrifuged at 40,000 g for 20 minutes at 4° C. This step was repeated, and the resulting pellet was resuspended in TE buffer. Aliquots were frozen at −70° C. until needed. On the day of assay, membranes were thawed and diluted with TE buffer. Competition radioligand binding assays were performed with increasing concentrations of test compound in the presence of [^3H]-histamine incubated at 25° C. for 1 hour in a total volume of 0.5 ml of 50 mM Tris, 5 mM EDTA, pH 7.4. All binding reactions were terminated by filtration under vacuum onto polyethylenimine (0.3%) presoaked Unifilters (PerkinElmer Life Sciences) or Whatman GF/B filters (Whatman, Clifton, N.J.) followed by three brief washes with 4 ml of ice-cold TE buffer. Bound radiolabel was determined by liquid scintillation counting. For all of the radioligand competition binding assays, IC50 values and Hill slopes were determined by Hill transformation of the data and Ki values were determined by the Cheng-Prusoff equation. The following table of representative histamine H4 receptor ligands is provided, along with potency values: […]
Potency [1] [nM],Ki [2] [nM],SMILES
35,,"Nc1nc2c(c(N3CC[C@@H](N)C3)n1)CCCc1cccnc1-2 [Example 15, 4-[(3R)-3-aminopyrrolidin-1-yl]-6,7-dihydro-5H-pyrido[3′,2′:6,7]cyclohepta[1,2-d]pyrimidin-2-amine]"
6.6,10,"Nc1nc2c(c(N3CC[C@@H](N)C3)n1)CCCc1sccc1-2 [Example 2, 4-[(3R)-3-aminopyrrolidin-1-yl]-6,7-dihydro-5H-thieno[2′,3′:6,7]cyclohepta[1,2-d]pyrimidin-2-amine]"
700,,"Nc1nc2c(c(N3CC4CCCNC4C3)n1)CCCc1sc(-c3ccccc3)cc1-2 (stereo not shown) [Example 13, 4-octahydro-6H-pyrrolo[3,4-b]pyridin-6-yl-9-phenyl-6,7-dihydro-5H-thieno[2′,3′:6,7]cyclohepta[1,2-d]pyrimidin-2-amine]"
2350,,"Cc1noc2c1-c1nc(N)nc(N3CCN(C)CC3)c1CCC2 [Example 16, 10-methyl-4-(4-methylpiperazin-1-yl)-6,7-dihydro-5H-isoxazolo[5′,4′:6,7]cyclohepta[1,2-d]pyrimidin-2-amine]"
105,426,"Cn1ncc2c1CCCc1c-2nc(N)nc1N1CC[C@@H](N)C1 [Example 9, 4-[(3R)-3-aminopyrrolidin-1-yl]-8-methyl-5,6,7,8-tetrahydropyrazolo[3′,4′:6,7]cyclohepta[1,2-d]pyrimidin-2-amine]"
107,,"CN1CCN(c2nc(N)nc3c2CCCc2c-3cnn2C)CC1 [Example 8, 8-methyl-4-(4-methylpiperazin-1-yl)-5,6,7,8-tetrahydropyrazolo[3′,4′:6,7]cyclohepta[1,2-d]pyrimidin-2-amine]"
187,44,"CC(C)(C)n1ncc2c1CCCc1c-2nc(N)nc1N1CC2CCCNC2C1 (stereo not shown) [Example 10, 8-tert-butyl-4-octahydro-6H-pyrrolo[3,4-b]pyridin-6-yl-5,6,7,8-tetrahydropyrazolo[3′,4′:6,7]cyclohepta[1,2-d]pyrimidin-2-amine]"
1860,,"Cc1noc2c1-c1nc(N)nc(N3CC[C@@H](N)C3)c1CCC2 [Example 17, 4-[(3R)-3-aminopyrrolidin-1-yl]-10-methyl-6,7-dihydro-5H-isoxazolo[5′,4′:6,7]cyclohepta[1,2-d]pyrimidin-2-amine]"
46,,"CN[C@@H]1CCN(c2nc(N)nc3c2CCCc2c-3cnn2-c2ccccc2)C1 [Example 11, 4-[(3R)-3-(methylamino)pyrrolidin-1-yl]-8-phenyl-5,6,7,8-tetrahydropyrazolo[3′,4′:6,7]cyclohepta[1,2-d]pyrimidin-2-amine]"
37,,"CN1CCN(c2nc(N)nc3c2CCCc2cccnc2-3)CC1 [Example 14, 4-(4-methylpiperazin-1-yl)-6,7-dihydro-5H-pyrido[3′,2′:6,7]cyclohepta[1,2-d]pyrimidin-2-amine]"
252,,"Cc1cc2c(o1)CCCc1c-2nc(N)nc1N1CC[C@@H](N)C1 [Example 6, 4-[(3R)-3-aminopyrrolidin-1-yl]-9-methyl-6,7-dihydro-5H-furo[2′,3′:6,7]cyclohepta[1,2-d]pyrimidin-2-amine]"
,1300,"CN1CCN(c2nc(N)nc3c2CCc2nn(-c4ccccc4)nc2-3)CC1 [Example 20, 6-(4-methylpiperazin-1-yl)-2-phenyl-4,5-dihydro-2H-[1,2,3]triazolo[4,5-h]quinazolin-8-amine]"
34,,"Cc1cc2c(o1)CCCc1c-2nc(N)nc1N1CC2CCCNC2C1 (stereo not shown) [Example 5, 9-methyl-4-octahydro-6H-pyrrolo[3,4-b]pyridin-6-yl-6,7-dihydro-5H-furo[2′,3′:6,7]cyclohepta[1,2-d]pyrimidin-2-amine]"
3.7,8.8,"CN[C@@H]1CCN(c2nc(N)nc3c2CCCc2sccc2-3)C1 [Example 3, 4-[(3R)-3-(methylamino)pyrrolidin-1-yl]-6,7-dihydro-5H-thieno[2′,3′:6,7]cyclohepta[1,2-d]pyrimidin-2-amine]"
,80,"CN1CCN(c2nc(N)nc3c2CCc2sccc2-3)CC1 [Example 21, 4-(4-methylpiperazin-1-yl)-5,6-dihydrothieno[2,3-h]quinazolin-2-amine]"
35,,"Nc1nc2c(c(N3CC4CCCNC4C3)n1)CCCc1sc(Br)cc1-2 (stereo not shown) [Example 12, 9-bromo-4-octahydro-6H-pyrrolo[3,4-b]pyridin-6-yl-6,7-dihydro-5H-thieno[2′,3′:6,7]cyclohepta[1,2-d]pyrimidin-2-amine]"

SMILES,Potency [1] [nM],Ki [2] [nM]
"Nc1nc2c(c(N3CC4CCCNC4C3)n1)CCCc1occc1-2 (stereo not shown) [Example 4, 4-octahydro-6H-pyrrolo[3,4-b]pyridin-6-yl-6,7-dihydro-5H-furo[2′,3′:6,7]cyclohepta[1,2-d]pyrimidin-2-amine]",14,12
"Nc1nc2c(c(N3CC4CCCNC4C3)n1)CCCc1ccoc1-2 (stereo not shown) [Example 7, 4-octahydro-6H-pyrrolo[3,4-b]pyridin-6-yl-6,7-dihydro-5H-furo[3′,2′:6,7]cyclohepta[1,2-d]pyrimidin-2-amine]",20,165
"Nc1nc2c(c(N3CC4CCCNC4C3)n1)CCCc1sccc1-2 (stereo not shown) [Example 1, 4-octahydro-6H-pyrrolo[3,4-b]pyridin-6-yl-6,7-dihydro-5H-thieno[2′,3′:6,7]cyclohepta[1,2-d]pyrimidin-2-amine]",17,6
"Nc1nc2c(c(N3C[C@H]4CCCN[C@H]4C3)n1)CCCc1sccc1-2 [Example 18, 4-[(4aR,7aR)-octahydro-6H-pyrrolo [3,4-b]pyridin-6-yl]-6,7-dihydro-5H-thieno[2′,3′:6,7]cyclohepta[1,2-d]pyrimidin-2-amine]",6,1.8
